According to patent US11643436B2, “Polypeptide compound, pharmaceutical composition, preparation method and application thereof” (CHENGDU SINTANOVO BIOTECHNOLOGY CO., LTD., priority 2019, dated 2023):
Like-named read-outs stand apart in the source and are kept apart here.

How the values were obtained:
human δ-opioid receptor = human δ-opioid receptor (Homo sapiens (Human), UniProt P41143); assay: Forskolin-stimulated cAMP inhibition in HEK293 cells, δ-opioid receptor; assay type: cell-based; settings: HEK293 cells highly expressing human δ-opioid receptor, read-out: DOR (EC50)
Chain of human δ-opioid receptor (P41143 whole entry, looked up): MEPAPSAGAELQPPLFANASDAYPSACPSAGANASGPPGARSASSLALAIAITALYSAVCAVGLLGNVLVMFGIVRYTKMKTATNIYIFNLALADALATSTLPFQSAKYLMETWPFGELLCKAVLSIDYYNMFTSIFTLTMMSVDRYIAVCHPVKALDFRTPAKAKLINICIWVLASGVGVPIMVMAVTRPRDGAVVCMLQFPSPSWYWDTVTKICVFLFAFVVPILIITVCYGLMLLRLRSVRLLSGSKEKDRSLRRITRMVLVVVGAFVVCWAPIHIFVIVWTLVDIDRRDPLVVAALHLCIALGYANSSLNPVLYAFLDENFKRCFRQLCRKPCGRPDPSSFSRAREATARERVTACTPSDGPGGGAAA
Protocol: (§1) Forskolin can stimulate the release of cAMP from HEK293 cells with high expression of human κ (or μ, or δ)-opioid receptors. […] The efficacy of the compounds of the invention as κ-opioid receptor agonists was determined by measuring the ability of the compounds of Examples to inhibit adenylate cyclase activity.
(§2) Cell culture: The HEK293 cell line highly expressing human κ (or μ, or δ)-opioid receptor were cultured in DMEM medium containing 10% FBS.
(§3) Stimulation: the test compound was 4-fold diluted in a gradient manner to obtain 10 concentrations, and 50 nl of each was transferred to a 384-well plate, and then 10 nl Forskolin was added; the cells were digested, re-suspended, and counted; and then 10 μl of cell suspension (5×10^5 cell/mL) was added, and the cells were mixed gently, and incubated at 23° C. for 60 minutes.
(§4) Detection: cAMP Assay Kit (Cisbio) was used, cAMPD2 and Anti-cAMP conjugate were added, and the resultant mixture was incubated for 1 h at room temperature. The plate was read using envision (Perkin Elmer) and EC50 was obtained by means of fitting with a four-parameter equation.

human κ-opioid receptor = human κ-opioid receptor (Homo sapiens (Human), UniProt P41145); assay: Forskolin-stimulated cAMP inhibition in HEK293 cells, κ-opioid receptor agonism; assay type: cell-based; settings: HEK293 cells highly expressing human κ-opioid receptor, read-out: KOR (EC50)
Protocol: as §1, §2, §3, §4

human μ-opioid receptor = human μ-opioid receptor (Homo sapiens (Human), UniProt P35372); assay: Forskolin-stimulated cAMP inhibition in HEK293 cells, μ-opioid receptor; assay type: cell-based; settings: HEK293 cells highly expressing human μ-opioid receptor, read-out: MOR (EC50)
Protocol: as §1, §2, §3, §4

ICR male mice = assay: Acetic acid writhing test in mice; assay type: in vivo; settings: IV administration 15 minutes before 0.6% acetic acid i.p.; writhes within 15 min
Protocol: The analgesic effect of the compound of the invention was evaluated by measuring the analgesic ED50 of the compounds of Examples in the acetic acid writhing test in mice.
The ICR male mice (18-25 g) were randomly separated into the drug group and the model group. 15 minutes after IV administration, 0.6% (v/v) acetic acid solution was intraperitoneally injected at 10 mL/kg. The number of writhes of the mice within 15 min was counted. The inhibition rate on the writhes was calculated based on the number of writhes. The ED50 of the compound to be tested was calculated based on inhibition rate according to a four-parameter equation.

[1] = Caco-2 membrane permeability assay; assay type: in vitro ADME; settings: human, Caco-2, A-B direction, pH 7.4, 37° C.
Protocol: The Caco-2 cell line is a human colon adenocarcinoma cell line that differentiates in culture and is used to model the epithelial lining of the human small intestine. Compounds of the present invention were tested in a membrane permeability assay using Caco-2 cell membrane layer in a standard assay. The apparent permeability coefficient (Papp) can be determined in the apical-to-basolateral (A-B) direction across cell monolayers cultured on 96-well polycarbonate membrane filters. The compound was maintained at pH 7.4 on the […] at a concentration of 5 μM, and the test plate was gently shaken and incubated at 37° C. for 120 minutes. Samples were taken at time zero from the donor side and at the end of the incubation period from both the donor and acceptor sides. Samples were analyzed by HPLC-MS/MS. The Papp value (expressed as […]) was then calculated based on the appearance rate of compound on the recipient side. Papp can be calculated by the following equation: Papp=(VA×[drug]acceptor)/(Area×Time×[drug]initial, donor) wherein Papp is the apparent permeability; VA is the volume of the acceptor side, Area is the surface area of the membrane, [drug]initial, donor is the concentration on the donor side at time zero, [drug]acceptor is the concentration of the compounds on the recipient side at the end of the incubation period, Time is the total incubation time.

cytochrome P450 CYP 3A4 = cytochrome P450 CYP 3A4 (Homo sapiens (Human), UniProt P08684); assay: Inhibition of cytochrome P450 in human liver microsomes, CYP 3A4; assay type: in vitro ADME
Chain of cytochrome P450 CYP 3A4 (P08684 whole entry): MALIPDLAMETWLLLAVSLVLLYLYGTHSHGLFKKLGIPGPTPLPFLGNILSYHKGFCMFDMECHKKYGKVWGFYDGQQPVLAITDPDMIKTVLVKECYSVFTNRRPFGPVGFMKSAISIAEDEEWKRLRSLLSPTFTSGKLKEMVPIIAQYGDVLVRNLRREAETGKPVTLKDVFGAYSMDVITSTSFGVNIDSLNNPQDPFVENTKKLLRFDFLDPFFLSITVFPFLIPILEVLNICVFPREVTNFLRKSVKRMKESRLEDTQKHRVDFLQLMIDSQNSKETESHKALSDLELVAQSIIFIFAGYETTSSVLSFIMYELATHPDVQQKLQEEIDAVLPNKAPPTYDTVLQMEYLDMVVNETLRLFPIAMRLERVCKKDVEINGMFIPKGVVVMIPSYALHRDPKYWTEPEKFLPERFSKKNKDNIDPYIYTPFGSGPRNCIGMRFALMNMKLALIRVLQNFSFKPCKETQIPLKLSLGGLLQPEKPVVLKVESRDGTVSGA
Protocol: (§5) The human liver microsomes (0.253 mg/mL protein) containing cytochrome P450, test compounds (0.05-50 μM), CYPs substrates (10 μM […], 5 μM diclofenac, 30 μM mephenytoin, 5 μM dextromethorphan hydrobromide, 2 μM midazolam), 1.0 mM NADP were incubated at 37° C. for 10 minutes. Naflavone, sulfafenpyrazole, N-3-benzylnivan, quinidine, and ketoconazole were used as reference inhibitors.

cytochrome P450 CYP 2C19 = cytochrome P450 CYP 2C19 (Homo sapiens (Human), UniProt P33261); assay: Inhibition of cytochrome P450 in human liver microsomes, CYP 2C19; assay type: in vitro ADME
Chain of cytochrome P450 CYP 2C19 (P33261 whole entry): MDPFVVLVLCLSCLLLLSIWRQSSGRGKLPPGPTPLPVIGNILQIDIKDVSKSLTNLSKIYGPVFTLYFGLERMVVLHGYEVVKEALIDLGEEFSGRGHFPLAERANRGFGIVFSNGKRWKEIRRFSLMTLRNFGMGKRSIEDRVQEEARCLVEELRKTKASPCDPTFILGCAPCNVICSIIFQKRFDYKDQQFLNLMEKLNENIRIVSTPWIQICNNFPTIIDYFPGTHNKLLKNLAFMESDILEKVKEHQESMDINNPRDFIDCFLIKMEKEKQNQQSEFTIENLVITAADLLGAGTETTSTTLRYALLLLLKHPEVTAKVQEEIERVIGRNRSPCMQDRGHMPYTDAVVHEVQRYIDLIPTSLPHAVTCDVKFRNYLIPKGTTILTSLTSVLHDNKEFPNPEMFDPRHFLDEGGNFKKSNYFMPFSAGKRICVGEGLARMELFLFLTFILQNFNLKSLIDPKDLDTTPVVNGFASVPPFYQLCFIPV
Protocol: as §5

cytochrome P450 CYP 2D6 = cytochrome P450 CYP 2D6 (Homo sapiens (Human), UniProt P10635); assay: Inhibition of cytochrome P450 in human liver microsomes, CYP 2D6; assay type: in vitro ADME
Chain of cytochrome P450 CYP 2D6 (P10635 whole entry): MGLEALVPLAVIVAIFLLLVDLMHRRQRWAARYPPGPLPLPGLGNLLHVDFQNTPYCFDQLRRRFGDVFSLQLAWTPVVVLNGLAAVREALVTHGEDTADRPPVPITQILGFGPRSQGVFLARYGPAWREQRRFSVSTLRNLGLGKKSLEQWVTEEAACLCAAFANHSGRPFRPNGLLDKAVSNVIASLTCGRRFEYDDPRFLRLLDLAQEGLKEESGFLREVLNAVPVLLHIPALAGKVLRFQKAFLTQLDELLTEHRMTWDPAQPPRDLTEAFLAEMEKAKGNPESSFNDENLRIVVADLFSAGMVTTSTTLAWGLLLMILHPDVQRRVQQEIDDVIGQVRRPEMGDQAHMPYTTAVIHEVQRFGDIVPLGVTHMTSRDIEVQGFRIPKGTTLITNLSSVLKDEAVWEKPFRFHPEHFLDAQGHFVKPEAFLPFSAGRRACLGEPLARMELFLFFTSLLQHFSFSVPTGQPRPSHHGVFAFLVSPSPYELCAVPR
Protocol: as §5

cytochrome P450 CYP 2C9 = cytochrome P450 CYP 2C9 (Homo sapiens (Human), UniProt P11712); assay: Inhibition of cytochrome P450 in human liver microsomes, CYP 2C9; assay type: in vitro ADME
Chain of cytochrome P450 CYP 2C9 (P11712 whole entry): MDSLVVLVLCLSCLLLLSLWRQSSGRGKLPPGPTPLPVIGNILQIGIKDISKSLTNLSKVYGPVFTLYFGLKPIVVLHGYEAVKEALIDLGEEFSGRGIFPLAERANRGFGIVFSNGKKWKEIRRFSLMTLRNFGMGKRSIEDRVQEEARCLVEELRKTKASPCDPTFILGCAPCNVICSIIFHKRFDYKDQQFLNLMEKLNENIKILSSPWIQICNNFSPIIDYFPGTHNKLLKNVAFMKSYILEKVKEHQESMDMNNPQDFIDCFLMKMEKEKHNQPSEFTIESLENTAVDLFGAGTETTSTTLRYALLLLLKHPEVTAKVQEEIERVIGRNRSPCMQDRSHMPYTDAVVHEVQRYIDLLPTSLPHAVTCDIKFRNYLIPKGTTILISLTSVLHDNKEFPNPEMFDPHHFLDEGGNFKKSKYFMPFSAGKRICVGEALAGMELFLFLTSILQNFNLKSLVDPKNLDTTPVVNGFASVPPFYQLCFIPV
Protocol: as §5

cytochrome P450 CYP 1A2 = cytochrome P450 CYP 1A2 (Homo sapiens (Human), UniProt P05177); assay: Inhibition of cytochrome P450 in human liver microsomes, CYP 1A2; assay type: in vitro ADME
Chain of cytochrome P450 CYP 1A2 (P05177 whole entry): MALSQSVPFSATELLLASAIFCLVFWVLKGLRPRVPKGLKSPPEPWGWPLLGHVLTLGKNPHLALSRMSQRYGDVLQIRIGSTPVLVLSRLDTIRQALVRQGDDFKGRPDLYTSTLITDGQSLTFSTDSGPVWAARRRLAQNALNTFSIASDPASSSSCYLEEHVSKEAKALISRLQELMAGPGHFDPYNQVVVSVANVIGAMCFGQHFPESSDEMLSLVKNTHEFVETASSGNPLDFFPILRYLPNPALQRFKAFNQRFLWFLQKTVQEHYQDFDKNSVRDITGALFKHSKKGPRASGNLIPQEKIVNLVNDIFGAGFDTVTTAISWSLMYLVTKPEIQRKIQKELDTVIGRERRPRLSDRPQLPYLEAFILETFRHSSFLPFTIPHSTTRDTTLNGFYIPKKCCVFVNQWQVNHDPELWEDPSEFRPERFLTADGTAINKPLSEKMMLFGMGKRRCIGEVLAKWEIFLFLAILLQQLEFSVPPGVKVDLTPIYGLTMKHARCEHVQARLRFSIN
Protocol: as §5

CC(C)C[C@@H](NC(=O)[C@@H](Cc1ccccc1)NC(=O)[C@H](N)Cc1ccccc1)C(=O)N[C@H](CCCCN)C(=O)N1CCC(B(O)O)CC1 [TM-1]
EC50 (human δ-opioid receptor): > 10 µM
EC50 (human κ-opioid receptor): 0.0984 nM
EC50 (human μ-opioid receptor): > 10 µM

CC(C)C[C@@H](NC(=O)[C@@H](Cc1ccccc1)NC(=O)[C@H](N)Cc1ccccc1)C(=O)N[C@H](CCCCN)C(=O)N1CC[C@@H](B(O)O)C1 [TM-2A, (R)-1-(D-Phe-D-Phe-D-Leu-D-Lys)-3-pyrrolidineboronic acid]
ED50 (ICR male mice): 0.679 µg/kg
Papp A→B at 120 min, 5 μM [1]: < 0.05 ×10⁻⁶ cm/s
EC50 (human δ-opioid receptor): > 10 µM
EC50 (human κ-opioid receptor): 0.0331 nM
EC50 (human μ-opioid receptor): > 10 µM

CC(C)C[C@@H](NC(=O)[C@@H](Cc1ccccc1)NC(=O)[C@H](N)Cc1ccccc1)C(=O)N[C@H](CCCCN)C(=O)N1CC=C(B(O)O)C1 [TM-3]
Papp A→B at 120 min, 5 μM [1]: < 0.2 ×10⁻⁶ cm/s
EC50 (human δ-opioid receptor): > 10 µM
EC50 (human κ-opioid receptor): 0.0547 nM
EC50 (human μ-opioid receptor): > 10 µM

CC(C)C[C@@H](NC(=O)[C@@H](Cc1ccccc1)NC(=O)[C@H](N)Cc1ccccc1)C(=O)N[C@H](CCCCN)C(=O)N1CCC=C(B(O)O)C1 [TM-5]
EC50 (human δ-opioid receptor): > 10 µM
EC50 (human κ-opioid receptor): 0.027 nM
EC50 (human μ-opioid receptor): > 10 µM

CC(C)C[C@@H](NC(=O)[C@@H](Cc1ccccc1)NC(=O)[C@H](N)Cc1ccccc1)C(=O)N[C@H](CCCCN)C(=O)N1CCC2(CC1)CC(B(O)O)C2 [TM-7]
EC50 (human δ-opioid receptor): > 10 µM
EC50 (human κ-opioid receptor): 0.0087 nM
EC50 (human μ-opioid receptor): > 10 µM

CC(C)C[C@@H](NC(=O)[C@@H](Cc1ccccc1)NC(=O)[C@H](N)Cc1ccccc1)C(=O)N[C@H](CCCCN)C(=O)N1CCC(N)(B(O)O)CC1 [TM-8]
Papp A→B at 120 min, 5 μM [1]: < 0.1 ×10⁻⁶ cm/s
EC50 (human δ-opioid receptor): > 10 µM
EC50 (human κ-opioid receptor): 0.0846 nM
EC50 (human μ-opioid receptor): > 10 µM

CC(C)C[C@@H](NC(=O)[C@@H](Cc1ccccc1)NC(=O)[C@H](N)Cc1ccccc1)C(=O)N[C@H](CCCCN)C(=O)N1CCC[C@H]1B(O)O [TM-9A, (R)-1-(D-Phe-D-Phe-D-Leu-D-Lys)-2-pyrrolidineboronic acid]
ED50 (ICR male mice): 0.377 µg/kg
Papp A→B at 120 min, 5 μM [1]: < 0.05 ×10⁻⁶ cm/s
EC50 (human δ-opioid receptor): > 10 µM
EC50 (human μ-opioid receptor): > 10 µM

CC(C)C[C@@H](NC(=O)[C@@H](Cc1ccccc1)NC(=O)[C@H](N)Cc1ccccc1)C(=O)N[C@H](CCCCN)C(=O)N1CCCC[C@H]1B(O)O [TM-13A, (R)-1-(D-Phe-D-Phe-D-Leu-D-Lys)-2-piperidine boronic acid]
EC50 (human δ-opioid receptor): > 10 µM
EC50 (human κ-opioid receptor): 0.0946 nM
EC50 (human μ-opioid receptor): > 10 µM

COCCOCCNCCCC[C@@H](NC(=O)[C@@H](CC(C)C)NC(=O)[C@@H](Cc1ccccc1)NC(=O)[C@H](N)Cc1ccccc1)C(=O)N1CC[C@H](B(O)O)C1 [TM-22B, (S)-1-(N2-D-Phe-D-Phe-D-Leu-N6-(2-(2-methoxyethoxy)ethyl)-D-Lys)-3-pyrrolidineboronic acid]
IC50 (cytochrome P450 CYP 3A4): > 50 µM
Papp A→B at 120 min, 5 μM [1]: < 0.1 ×10⁻⁶ cm/s
EC50 (human δ-opioid receptor): > 10 µM
IC50 (cytochrome P450 CYP 2C19): > 50 µM
IC50 (cytochrome P450 CYP 2D6): > 50 µM
IC50 (cytochrome P450 CYP 2C9): > 50 µM
EC50 (human κ-opioid receptor): 0.0095 nM
IC50 (cytochrome P450 CYP 1A2): > 50 µM
EC50 (human μ-opioid receptor): > 10 µM

CC(C)C[C@@H](NC(=O)[C@@H](Cc1ccccc1)NC(=O)[C@H](N)Cc1ccccc1)C(=O)N[C@H](CCCCN)C(=O)NCCB(O)O [TM-26]
IC50 (cytochrome P450 CYP 3A4; microsomes): > 50 µM
Papp A→B at 120 min, 5 μM [1]: < 0.1 ×10⁻⁶ cm/s
IC50 (cytochrome P450 CYP 2C19; microsomes): > 50 µM
IC50 (cytochrome P450 CYP 2D6; microsomes): > 50 µM
IC50 (cytochrome P450 CYP 2C9; microsomes): > 50 µM
IC50 (cytochrome P450 CYP 1A2; microsomes): > 50 µM
